Reference: patent publication US11385229B2, “Amplification technology using dual enzyme cascade detection” (The Regents of the University of California, priority 2017, dated 2022)

What was measured:
papain = papain (Carica papaya, UniProt P00784); conditions: BAPA as papain substrate; cited from earlier work
[1] = tested on: E. coli clinical isolates; assay: standard susceptibility testing (disc diffusion); on Ampicillin susceptibility: key: S, susceptible; R, resistant; on Cephalexin susceptibility: key: S, susceptible; R, resistant; assay type: cell-based; conditions: for standard susceptibility testing: E. coli isolate SF334 (blaTEM-1)
[2] = tested on: K. pneumoniae clinical isolates; assay: standard susceptibility testing (disc diffusion); assay type: cell-based; further: key: S, susceptible; R, resistant
[3] = tested on: E. coli isolated from CA-UTI urine samples; assay: susceptibility testing of E. coli cultured from CA-UTI urine samples; assay type: cell-based; conditions: 23 of 34 E. coli from CA-UTI samples
Experimental: In order to establish the threshold Δλ405 of DETECT, that delineates β-lactam-susceptible from β-lactam-resistant urine samples, we simultaneously analyzed urine samples by traditional microbiology techniques as a standard for comparison (raw Δλ405 of DETECT values shown in Table S1). As such, urine samples were cultured for identification of E. coli, and E. coli isolates were tested for susceptibility to ampicillin and cephalexin. Samples were separated for analyses based on susceptibility or resistance to these agents, and an average Δλ405 value was calculated for each group. The average Δλ405 values corresponding to β-lactam-resistant and β-lactam-susceptible samples are shown in FIG. 5B, where the average Δλ405 of samples defined by traditional susceptibility analyses as resistant to ampicillin or cephalexin was 1.026, and the average Δλ405 in samples containing susceptible E. coli was 0.2990 (p=0.00048, two-tailed t-test). Finally, the threshold value was defined as 0.616, three standard deviations greater than the average Δλ405 of β-lactam-susceptible isolates. Therefore, samples with Δλ405>0.616 were defined as “positive” by DETECT (or resistant to early-generation β-lactams), and samples with Δλ405<0.616 were defined as “negative” by DETECT (or susceptible to β-lactams), the latter of which would qualify for treatment with an early-generation β-lactam. […]

[4] = target: recombinant TEM-1 β-lactamase (Escherichia coli, UniProt P62593); conditions: recombinant TEM-1, absorbance 486 nm
Source text: To verify the targeting capacity and establish the amplification capacity of thiophenol-β-lac, we first targeted the β-lactamase TEM-1, which mediates resistance to β-lactam antibiotics, such as ampicillin We compared the sensitivity of DETECT against the standard chromogenic β-lactamase probe nitrocefin (FIG. 3)^19. Recombinant TEM-1 activity was quantified by measuring the formation of the hydrolytic chromogenic products from DETECT or nitrocefin in a time-dependent manner with a microplate reader (DETECT hydrolytic product=405 nm, and nitrocefin hydrolytic product=486 nm).
(B) Time-dependent plot of β-lactamase activity assay performed with DETECT, where varied concentrations of recombinant TEM-1 were incubated with the DETECT system in a 96-well plate for 90 min. The absorbance at 405 nm was collected in 5 min intervals and plotted against time. (C) Photograph of color change caused from DETECT amplification in wells where TEM-1 was present at increasing concentrations from right to left. The rightmost well is a control well where all the components were incubated in the absence of TEM-1. (D) Time-dependent biochemical experiment where varied concentrations of TEM-1 were incubated with the standard β-lactamase probe nitrocefin in a 96-well plate, and the respective absorbance values were collected on a microplate reader (486 nm). […]

[5] = tested on: TEM-1-producing E. coli clinical isolate SF334; assay type: cell-based; conditions: E. coli isolate SF334 (TEM-1)
Experimental: Whole-cell suspensions of SF334 were prepared as described above. First, we confirmed β-lactamase activity in the TEM-1-producing clinical isolate by incubating 10^6 CFU of SF334 with the DETECT components (FIG. 4A), then collecting absorbance values at 405 nm after 45, 60, 120, and 180 min of incubation. […] The analogous experiment was performed with nitrocefin, where whole-cell suspensions of SF334 and SF505 were incubated with nitrocefin. As indicated in the literature, samples were incubated with nitrocefin for up to only 30 min to minimize background signal associated with non-selective hydrolysis^14.
Subsequent studies were performed to establish the detection limit of DETECT relative to nitrocefin, by serially diluting isolate SF334 in 100-fold increments. […]
(A) Schematic representation of the experiments performed with E. coli clinical isolates, where bacterial suspensions were incubated with DETECT components thiophenol-β-lac, disulfide-protected papain, and BAPA in a 96-well plate. Following 1 h of incubation, the sample wells were analyzed with a microplate reader and the absorbance at 405 nm was collected. […] (C) Plot displaying the signal outputs generated by DETECT in the presence of varying quantities of SF334, which was carried out to define the signal threshold of DETECT compared to the current standard, nitrocefin. […]

[6] = E. coli isolate BE30, β-lactamase gene SHV-1
[7] = E. coli isolate BE115, β-lactamase gene OXA-1
[8] = E. coli isolate BE372, β-lactamase gene TEM-1 (1b)
[9] = E. coli isolate BE527, β-lactamase gene SHV-1
[10] = E. coli isolate BE1004, β-lactamase gene TEM-1 (1c)
[11] = E. coli isolate BE1173, β-lactamase gene TEM-1 (1b)
[12] = E. coli isolate BE1335, β-lactamase gene SHV-1
[13] = E. coli isolate BR2, β-lactamase gene KPC-2
[14] = E. coli isolate SF105, β-lactamase gene TEM-1
[15] = E. coli isolate SF141, β-lactamase gene CMY-2
[16] = E. coli isolate SF148, β-lactamase gene CTX-M-14
[17] = E. coli isolate SF207, β-lactamase gene CMY-2
[18] = E. coli isolate SF384, β-lactamase gene ND
[19] = E. coli isolate SF410, β-lactamase gene CTX-M-15
[20] = E. coli isolate SF487, β-lactamase gene CTX-M-14
[21] = E. coli isolate SF674, β-lactamase gene CTX-M-15
[22] = K. pneumoniae isolate ATCC 700603, β-lactamase gene SHV-18 (ESBL)
[23] = K. pneumoniae isolate BR1, β-lactamase gene SHV-185
[24] = K. pneumoniae isolate BR27, β-lactamase gene SHV-11
[25] = K. pneumoniae isolate BR28, β-lactamase gene KPC-2, SHV-11
[26] = K. pneumoniae isolate BR45, β-lactamase gene SHV-38/168
[27] = K. pneumoniae isolate BR50, β-lactamase gene SHV-62
[28] = K. pneumoniae isolate BR52, β-lactamase gene SHV-132
[29] = K. pneumoniae isolate BR313, β-lactamase gene SHV-83/187
[30] = K. pneumoniae isolate SF412, β-lactamase gene ND
[31] = K. pneumoniae isolate SF519, β-lactamase gene ND

papain, sequence (P00784 134-345): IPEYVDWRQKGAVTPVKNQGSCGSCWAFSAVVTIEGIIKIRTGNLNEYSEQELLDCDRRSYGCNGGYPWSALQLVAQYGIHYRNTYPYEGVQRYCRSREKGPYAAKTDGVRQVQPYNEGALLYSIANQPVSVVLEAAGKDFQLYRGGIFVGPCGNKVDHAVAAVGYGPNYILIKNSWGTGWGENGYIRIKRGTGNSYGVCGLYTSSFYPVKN
recombinant TEM-1 β-lactamase, sequence (P62593 24-286 limits assumed): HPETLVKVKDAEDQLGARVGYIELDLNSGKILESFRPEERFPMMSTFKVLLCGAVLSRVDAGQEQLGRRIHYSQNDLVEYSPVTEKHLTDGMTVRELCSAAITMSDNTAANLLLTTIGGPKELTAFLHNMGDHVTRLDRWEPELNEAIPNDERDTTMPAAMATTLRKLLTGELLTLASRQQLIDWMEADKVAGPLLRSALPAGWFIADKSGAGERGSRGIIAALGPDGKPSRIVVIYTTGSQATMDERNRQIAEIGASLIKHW

N=C(N)NCCC[C@H](NC(=O)c1ccccc1)C(=O)Nc1ccc([N+](=O)[O-])cc1 [BAPA, N-benzoyl-L-arginine-p-nitroaniline]
KCAT value with papain (papain): 0.7 to 0.8 s⁻¹

CC1=C(C(=O)O)N2C(=O)[C@@H](NC(=O)[C@H](N)c3ccccc3)[C@H]2SC1 [Cephalexin, cephalexin]
Cephalexin susceptibility [1, 6]: S
Cephalexin susceptibility [1, 7]: S
Cephalexin susceptibility [1, 8]: R
Cephalexin susceptibility [1, 9]: S
Cephalexin susceptibility [1, 10]: S
Cephalexin susceptibility [1, 11]: S
Cephalexin susceptibility [1, 12]: S
Cephalexin susceptibility [1, 13]: R
Cephalexin susceptibility [1, 14]: R
Cephalexin susceptibility [1, 15]: R
Cephalexin susceptibility [1, 16]: R
Cephalexin susceptibility [1, 17]: R
standard susceptibility testing [1]: resistance
Cephalexin susceptibility [1, 18]: S
Cephalexin susceptibility [1, 19]: R
Cephalexin susceptibility [1, 20]: R
Cephalexin susceptibility [1, 21]: R
Cephalexin susceptibility [2, 22]: R
Cephalexin susceptibility [2, 23]: S
Cephalexin susceptibility [2, 24]: S
Cephalexin susceptibility [2, 25]: R
Cephalexin susceptibility [2, 26]: S
Cephalexin susceptibility [2, 27]: S
Cephalexin susceptibility [2, 28]: S
Cephalexin susceptibility [2, 29]: S
Cephalexin susceptibility [2, 30]: S
Cephalexin susceptibility [2, 31]: S

CC1(C)S[C@@H]2[C@H](NC(=O)[C@H](N)c3ccccc3)C(=O)N2[C@H]1C(=O)O [Ampicillin, ampicillin]
E. coli isolates susceptible [3]: 68%
Ampicillin susceptibility [1, 6]: R
Ampicillin susceptibility [1, 7]: R
Ampicillin susceptibility [1, 8]: R
Ampicillin susceptibility [1, 9]: R
Ampicillin susceptibility [1, 10]: R
Ampicillin susceptibility [1, 11]: R
Ampicillin susceptibility [1, 12]: R
Ampicillin susceptibility [1, 13]: R
Ampicillin susceptibility [1, 14]: R
Ampicillin susceptibility [1, 15]: R
Ampicillin susceptibility [1, 16]: R
Ampicillin susceptibility [1, 17]: R
standard susceptibility testing [1]: resistance
Ampicillin susceptibility [1, 18]: S
Ampicillin susceptibility [1, 19]: R
Ampicillin susceptibility [1, 20]: R
Ampicillin susceptibility [1, 21]: R
Ampicillin susceptibility [2, 22]: R
Ampicillin susceptibility [2, 23]: R
Ampicillin susceptibility [2, 24]: R
Ampicillin susceptibility [2, 25]: R
Ampicillin susceptibility [2, 26]: R
Ampicillin susceptibility [2, 27]: R
Ampicillin susceptibility [2, 28]: R
Ampicillin susceptibility [2, 29]: R
Ampicillin susceptibility [2, 30]: S
Ampicillin susceptibility [2, 31]: S

O=C(Cc1cccs1)N[C@@H]1C(=O)N2C(C(=O)O)=C(/C=C/c3ccc([N+](=O)[O-])cc3[N+](=O)[O-])CS[C@H]12 [nitrocefin]
limit of detection of TEM-1 [4]: 4 nM
suspension of SF334 needed to identify β-lactamase activity above background [5]: 10^7 CFU/mL
